Measurements reported in patent publication US6740663B2, “Mono- and di-fluorinated benzothiepine compounds as inhibitors of apical sodium co-dependent bile acid transport (ASBT) and taurocholate uptake” (G.D. Searle, LLC, priority 2001, dated 2004).

SMILES	melting point [°C]
CCCCC1(CCCC)CS(=O)(=O)c2ccc(N(C)C)cc2[C@@H](c2ccc(OCCCCCC(C(=O)O)C(=O)O)cc2)[C@H]1O [Example 1413, (4S-cis)-[5-[4-[3,3-Dibutyl-7-(dimethylamino)-2,3,4,5-tetrahydro-4-hydroxy-1,1-dioxido-1-benzothiepin-5-yl]phenoxy]pentyl]propanedioic Acid]	118
CCCCC1(CCCC)CS(=O)(=O)c2ccc(N(C)C)cc2[C@@H](c2ccc(OCc3ccc(C(=O)O)cc3)cc2)[C@H]1O [Example 1424, (4R-cis)-4-[[4-[3,3-Dibutyl-7-(dimethylamino)-2,3,4,5-tetrahydro-4-hydroxy-1,1-dioxido-1-benzothiepin-5-yl]phenoxy]methyl]benzoic Acid]	156 to 159
CCCCC1(CCCC)CS(=O)(=O)c2ccc(N(C)C)cc2[C@@H](c2ccc(OCCCCCc3nn[nH]n3)cc2)[C@H]1O [Example 1420, (4R-cis)-3,3-Dibutyl-7-(dimethylamino)-2,3,4,5-tetrahydro-5-[4-[[5-(1H-tetrazol-5-yl)pentyl]oxy]phenyl]-1-benzothiepin-4-ol 1,1-Dioxide]	80 to 85
CCCCC1(CCCC)CS(=O)(=O)c2ccc(N(C)C)cc2[C@@H](c2cccc(NC(=O)Nc3cccc(C[N+]45CCN(CC4)CC5)c3)c2)[C@H]1O.[Cl-]	246 to 248
CCCC[C@]1(CC)CS(=O)(=O)c2ccc(N3CCOCC3)cc2[C@@H](c2ccc(F)cc2)[C@H]1O [Compound 83, (3α,4β,5β)3-Butyl-3-ethyl-5-(4′-fluorophenyl)-4-hydroxy-7-(1-morpholinyl)-2,3,4,5-tetrahydrobenzothiepine-1,1-dioxide]	176.5 to 187.5
CCCCC1(CCCC)CS(=O)(=O)c2ccc(N(C)C)cc2[C@@H](c2ccc(OCCCCCNC(=N)N)cc2)[C@H]1O [Example 1422, (4R-cis)-[5-[4-[3,3-Dibutyl-7-(dimethylamino)-2,3,4,5-tetrahydro-4-hydroxy-1,1-dioxido-1-benzothiepin-5-yl]phenoxy]pentyl]guanidine]	67 to 72.5
CCCCC1(CCCC)CS(=O)(=O)c2ccc(N(C)C)cc2[C@@H](c2ccc(OCCCCS(N)(=O)=O)cc2)[C@H]1O [Example 1405]	108 to 110
CCCCC1(CCCC)CS(=O)(=O)c2ccc(N(C)C)cc2[C@@H](c2ccc(OCCCCCOc3cc(C(=O)O)nc(C(=O)O)c3)cc2)[C@H]1O [Example 1421, (4R-cis)-4-[[5-[4-[3,3-Dibutyl-7-(dimethylamino)-2,3,4,5-tetrahydro-4-hydroxy-1,1-dioxido-1-1benzothiepin-5-yl]phenoxy]pentyl]oxy]-2,6-pyridinecarboxylic Acid]	143
CCCCC1(CCCC)CS(=O)(=O)c2ccc(N(C)C)cc2[C@@H](c2ccc(OCCCCC[N+](C)(C)CC[N+](C)(C)CC)cc2)[C@H]1O [Example 1418, (4R-cis)-N-[5-[4-[3,3-Dibutyl-7-(dimethylamino)-2,3,4,5-tetrahydro-4-hydroxy-1,1-dioxido-1-benzothiepin-5-yl]phenoxy]pentyl]-N′-ethyl-N,N,N′,N′-tetramethyl-1,2-ethanediaminium Dichloride]	193 to 197
CCCCC1(CCCC)CS(=O)(=O)c2ccc(N(C)C)cc2[C@@H](c2cccc(NC(=O)OCCC[N+]34CCN(CC3)CC4)c2)[C@H]1O.[Cl-]	218 to 225
CCCC[C@]1(CC)CS(=O)(=O)c2ccc(N3CCCC3)cc2[C@@H](c2ccc(F)cc2)[C@H]1O [Compound 82, (3α,4β,5β)3-Butyl-3-ethyl-5-(4′-fluoropheny)-4-hydroxy-7-(1-pyrrolidinyl)-2,3,4,5-tetrahydrobenzothiepine-1,1-dioxide]	174.5 to 177
CCCCC1(CCCC)CS(=O)(=O)c2ccc(N(C)C)cc2[C@@H](c2ccc(OCc3cccc(CCC(=O)O)n3)cc2)[C@H]1O [Example 1430, (4R-cis)-6-[[4-[3,3-Dibutyl-7-(dimethylamino)-2,3,4,5-tetrahydro-4-hydroxy-1,1-dioxido-1-benzothiepin-5-yl]phenoxy]methyl]-2-pyridinepropanoic Acid]	105 to 107
CCCCC1(CCCC)CS(=O)(=O)c2ccc(N(C)C)cc2[C@@H](c2ccc(OCCOCCC(C(=O)O)C(=O)O)cc2)[C@H]1O [Example 1432, (4S-cis)-[2-[2-[4-[3,3-Dibutyl-7-(dimethylamino)-2,3,4,5-tetrahydro-4-hydroxy-1,1-dioxido-1-benzothiepin-5-yl]phenoxy]ethoxy]ethyl]propanedioic Acid]	119.5
